Data from PMC5727165, “A switch in nucleotide affinity governs activation of the Src and Tec family kinases” (Scientific Reports, 2017).
Where a chain is given by its changes, count along the chain named. Read-outs that look alike come from different tables or passages of the source.

Legend:
Itk^32K L351A = target: T1, Itk^32K L351A (Homo sapiens, UniProt Q08881, L351A); test: Fluorescence anisotropy binding of Mant-labelled nucleotides
T1 construct: Human Itk^171–620 (Itk^32K); GST (cleaved yes); made in house; host or cells: baculovirus-infected Sf9 insect cells
T1 sequence (Q08881 171-620 L351A): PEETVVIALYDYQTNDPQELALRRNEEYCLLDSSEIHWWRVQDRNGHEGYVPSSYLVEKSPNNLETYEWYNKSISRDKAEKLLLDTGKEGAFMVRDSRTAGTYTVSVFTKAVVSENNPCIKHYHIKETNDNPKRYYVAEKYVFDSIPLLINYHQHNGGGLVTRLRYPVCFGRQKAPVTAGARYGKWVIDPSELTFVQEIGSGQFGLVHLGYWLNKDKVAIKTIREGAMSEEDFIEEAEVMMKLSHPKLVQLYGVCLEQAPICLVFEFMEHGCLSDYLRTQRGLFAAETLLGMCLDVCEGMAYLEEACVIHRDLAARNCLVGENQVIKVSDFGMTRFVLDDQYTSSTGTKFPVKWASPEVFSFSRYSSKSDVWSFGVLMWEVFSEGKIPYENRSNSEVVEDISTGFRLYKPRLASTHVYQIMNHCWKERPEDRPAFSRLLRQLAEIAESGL
From the text: (§1) Figure 3 An allosteric switch triggers nucleotide exchange. (a) Hydrophobic stack conservation in Src family kinases. The table illustrates the amino acid identity at each of the three positions in the hydrophobic stack in addition to the invariant tryptophan (Trp260 in Src) for all Src family kinase members. The positions are presented according to their N- to C-terminal order in the primary sequences. Where it was not possible to unambiguously determine the identity of the amino acid contributed by the SH2-kinase variable linker (V3), the residue is denoted by a question mark. (b) Small angle X-ray scattering of Itk^32K L351A (black). The scattering curve for wild type Itk^32K (cyan) is overlaid for comparison. […] (c) Rigid body modelling of Itk^32K L351A and fit to ab initio molecular envelope. Displacement of both the SH3 and SH2 domains is required for a good fit to the experimental scattering curve. (d) Determination of the binding constants of Itk^32K L351A for nucleotides by fluorescence anisotropy. […] (e) Determination of the thermal stabilities and relative binding affinities of non-phosphorylated Src^32KΔC L255A for nucleotides by differential scanning fluorimetry. […] TEXT PRINTED IN THE PICTURE: (d) Mant-ADP: Itk^32K L351A (non-phos) Kd (μM): 21.0 ± 2.1 | (d) Mant-ATP: Itk^32K L351A (non-phos) Kd (μM): 31.7 ± 2.7 | (e) ADP: Src^32KΔC L255A (non-phos) [nuc]1/2 (μM): 310 ± 20; Src^32KΔC L255A (non-phos) Tm^max (°C): 52.9; Src^32KΔC L255A (non-phos) ΔTm^max (°C): + 6.8 | (e) ATP: Src^32KΔC L255A (non-phos) [nuc]1/2 (μM): 100 ± 10; Src^32KΔC L255A (non-phos) Tm^max (°C): 54.2; Src^32KΔC L255A (non-phos) ΔTm^max (°C): + 8.1 | (e) apo: Src^32KΔC L255A (non-phos) Tm^max (°C): 46.1
To establish whether hydrophobic stack disassembly triggers a switch in nucleotide binding of the kinase domain, we measured the binding of both unphosphorylated and activation loop phosphorylated (pY511) Itk^32K L351A to ADP and ATP.
(§2) The binding constants for ADP and AMPPNP were determined for Src and Itk proteins by fluorescence anisotropy, using 2′/3′-Mant-labelled nucleotides (Jena Bioscience). Increasing concentrations of Itk^32K, Itk^L351A or Src^32K were incubated with 40 μM Mant-nucleotide in 30 mM Tris pH 7.5, 200 mM NaCl, 5 mM MgCl2, and 1 mM TCEP. Measurements were made with a Perkin Elmer LS50B fluorimeter (λex = 355 nm, λem = 447 nm) at 20 °C. For each data point 50–60 measurements, each with an integration time of 1 s, were averaged. For competition nucleotide displacement assays, 40–80 μM of protein was incubated with 40 μM Mant-ADP until equilibrium was established. Unlabelled nucleotide was titrated into the reaction and fluorescence anisotropy monitored. The equilibrium inhibition constant for the unlabelled nucleotide was calculated from the fitted curve.

Src^32KΔC L255A = target: T2, Src^32KΔC L255A (Mus musculus, UniProt P05480, L257A); test: Differential scanning fluorimetry (thermal stability vs nucleotide concentration); assay type: binding
T2 construct: mouse Src^85-523 (Src^32KΔC); GST (cleaved yes); made in house; host or cells: baculovirus-infected Sf9 insect cells
From the text: as §1
Due to limiting protein concentrations, we were unable to obtain a binding curve by fluorescence anisotropy, so we instead used thermal stability measurements to investigate its nucleotide-binding properties. Determination of accurate binding constants from thermal stability measurements requires knowledge of the enthalpy of unfolding. However, for a given protein, the enthalpy of unfolding is independent of the ligand being tested, so comparison of the concentrations of nucleotide required for half maximal stabilisation is valid.
Thermal stabilities as a function of nucleotide concentration were measured by differential scanning fluorimetry (DSF). Samples contained 0.1 mg/ml protein in 50 mM Tris pH 7.5, 150 mM NaCl, 1 mM TCEP, and 5 mM MgCl2 with ADP, ATP, or AMPPNP concentrations ranging from 0–16 mM. Samples were measured in triplicate using a BioRad iQ™5 Multicolor Real-Time PCR Detection System. For detection of phosphorylated protein, samples were diluted and 1 ng and 15 ng were loaded to SDS-PAGE for Src and Itk proteins, respectively. Phosphorylation was measured by immunoblot.

Itk^32K = target: T3, Itk^32K (Homo sapiens, UniProt Q08881); test: Competition nucleotide displacement assay (Mant-ADP, fluorescence anisotropy); assay type: binding
T3 construct: Human Itk^171–620 (Itk^32K); GST (cleaved yes); made in house; host or cells: baculovirus-infected Sf9 insect cells
T3 sequence (Q08881 171-620): T1 sequence (Q08881 171-620 L351A) with A181L
Protocol: Figure 1 Autoinhibited Itk and Src kinases preferentially bind ADP. (a) Schematic of constructs evaluated in this study. Itk^32K, Src^32K, and Src^32KΔC contain the conserved module of SH3, SH2, and kinase (^32K) domains. Src^32K was truncated by […] to remove its C-terminal tail (inclusive of the Y527 phosphorylation site), generating a construct we refer to as Src^32KΔC (ΔC-tail). (b) Competition nucleotide displacement assay for Itk^32K. 40 μM Itk^32K was incubated with 40 μM Mant-ADP until equilibrium was established. Unlabelled ADP or AMPPNP was titrated into the reaction and fluorescence anisotropy monitored. Comparison of the equilibrium inhibition constants (K i) gives an indication of the relative strength of nucleotide binding. […] (c) Competition nucleotide displacement assay for Src^32K. 40 μM tail-phosphorylated Src^32K (pY527) or doubly phosphorylated Src^32K pY416 (pY527) was incubated with 40 μM Mant-ADP until equilibrium was established. Unlabelled ADP or AMPPNP was titrated into the reaction and fluorescence anisotropy monitored. Solid lines correspond to Src^32K, dashed lines to Src^32K pY416. AMPPNP binds to Src^32K with 20-fold weaker affinity than ADP. […] (d) Omit map showing clear electron density for ADP and a single magnesium ion in the nucleotide-binding pocket of Src. The magnesium is coordinated by Asn391, Asp404, and the α- and β- phosphates of ADP. The β-phosphate is directly coordinated by the guanidinium side chain of Arg388. […]
Since the concentration of ATP in the cell is typically higher than ADP[33],[34], we performed nucleotide competition assays in order to determine which nucleotide is bound in vivo. We measured the concentrations of ADP or AMPPNP required to displace Mant-ADP. […]
The binding constants for ADP and AMPPNP were determined for Src and Itk proteins by fluorescence anisotropy, using 2′/3′-Mant-labelled nucleotides (Jena Bioscience). […] Unlabelled nucleotide was titrated into the reaction and fluorescence anisotropy monitored. The equilibrium inhibition constant for the unlabelled nucleotide was calculated from the fitted curve.

Src^32K = target: T4, Src^32K (Mus musculus, UniProt P05480); test: Fluorescence anisotropy binding of Mant-labelled nucleotides; details: direct Mant-nucleotide binding
T4 construct: mouse Src^85-535 (Src^32K); GST (cleaved yes); made in house; host or cells: baculovirus-infected Sf9 insect cells, co-expressed with human Csk
From the text: To characterise the nucleotide binding of Itk and Src, we purified recombinant wild type and mutant constructs of Itk and Src containing their respective SH3, SH2, and kinase domains (from here on referred to as Itk^32K, Src^32K, and Src^32KΔC, Fig. 1a). We confirmed the mass and homogeneity of isolated species by high-resolution anion exchange chromatography, intact mass spectrometry, and Western blotting with phospho-specific antibodies (Supplementary Figs 1–3). We performed fluorescence anisotropy measurements using Mant-labelled nucleotides. […] To avoid autophosphorylation during the course of the titration, we used the non-hydrolysable ATP analogue AMPPNP. […] Src^32K bound ADP approximately 6-fold more tightly than AMPPNP (Supplementary Fig. 4d).
Human Itk^171–620 (Itk^32K), mouse Src^85-535 (Src^32K), and mouse Src^85-523 (Src^32KΔC) as well as their respective point mutants were expressed as GST fusions in baculovirus-infected Sf9 insect cells. For the generation of Tyr527-phosphorylated Src^85-535, the protein was co-expressed with human Csk using pFastBac Dual (Invitrogen). Proteins were purified by sequential glutathione-sepharose affinity chromatography, TEV cleavage, high-resolution anion exchange, and size exclusion chromatography in a final buffer of 50 mM Tris, pH 7.5, 200 mM NaCl, 1 mM TCEP, 1% (v/v) glycerol.
as §2

Src^32KΔC = target: T5, Src^32KΔC (Mus musculus, UniProt P05480); test: Competition nucleotide displacement assay (Mant-ADP, fluorescence anisotropy); assay type: binding; details: 40 μM Src^32KΔC, 40 μM Mant-ADP; read-out: Ki (equilibrium inhibition constant)
T5 construct: mouse Src^85-523 (Src^32KΔC); GST (cleaved yes); made in house; host or cells: baculovirus-infected Sf9 insect cells
Protocol: Figure 2 Itk adopts a Src-like autoinhibited conformation. (a) Competition nucleotide displacement assay for Src^32KΔC. 40 μM Src^32KΔC was incubated with 40 μM Mant-ADP until equilibrium was established. Unlabelled ADP or AMPPNP was titrated into the reaction and fluorescence anisotropy monitored. […] (b) Small angle X-ray scattering curves for Itk^32K (cyan), Src^32K (magenta), Src^32KΔC (blue), and Src^32K R175L (green). […] (d) Table of physical parameters obtained from the scattering curves for Itk^32K, Src^32K, Src^32KΔC, and Src^32K R175L. (e)Ab initio model of Itk^32K and docking of autoinhibited Src (2SRC.pdb) into the molecular envelope. Two orientations of the envelope are shown for clarity. (f) Ab initio molecular envelope for Src^32KΔC illustrates the fit of the crystal structure of autoinhibited Src. TEXT PRINTED IN THE PICTURE: (a) ADP: Src^32KΔC Ki (mM): 0.03 ± 0.008 | (a) ANP: Src^32KΔC Ki (mM): 0.69 ± 0.140
as §2

[1] = Src^32KΔC L255A non-phosphorylated, DSF
[2] = Itk^32K L351A non-phosphorylated, read-out: Kd

Nc1ncnc2c1ncn2[C@@H]1O[C@H](COP(=O)(O)OP(=O)(O)OP(=O)(O)O)[C@@H](O)[C@H]1O [ATP]
Kd (Itk^32K L351A; activation loop-phosphorylated (pTyr511) Itk^32K L351A, read-out: Kd (binding constant)): 37 µM | additional thermal stability conferred by ATP over ADP (Src^32KΔC L255A; Src^32KΔC L255A non-phosphorylated): 1.3 °C | Tm^max (Src^32KΔC L255A; [1]): 54.2 °C | [nuc]1/2 (nucleotide concentration for half maximal stabilisation) (Src^32KΔC L255A; [1]): 100 ± 10 µM | relative binding of ATP versus ADP (Src^32KΔC L255A; Src^32KΔC L255A, from half maximal stabilisation concentrations): approximately three times better than ADP

Nc1ncnc2c1ncn2[C@@H]1O[C@H](COP(=O)(O)OP(=O)(O)NP(=O)(O)O)[C@@H](O)[C@H]1O [AMPPNP]
Ki (Itk^32K; 40 μM Itk^32K, 40 μM Mant-ADP, read-out: Ki (equilibrium inhibition constant)): 7900 µM | fold difference in Ki, AMPPNP weaker than ADP (Itk^32K; Itk^32K, displacement of Mant-ADP): ~41 fold | fold difference in affinity, ADP tighter than AMPPNP (Src^32K): approximately 6 fold | Ki (Src^32KΔC): 690 ± 140 µM

Mant-ATP
Kd (Itk^32K L351A; [2]): 31.7 ± 2.7 µM

Mant-ADP
Kd (Itk^32K L351A; [2]): 21 ± 2.1 µM
